According to patent publication US20210246115A1 (Bioimics AB, priority 2017, published 2021):
Values after ≈ are worked out from the molar mass of the structure shown. Structures can show the parent of a compound that is named as a salt. Where two headings read alike, the source gives them in different places.

Assays:
[1] = test system: Pseudomonas aeruginosa (ATCC27853); assay: MIC, broth microdilution (CLSI), Pseudomonas aeruginosa; assay type: cell-based
[2] = test system: M. fortuitum ATCC 110; assay: MIC, M. fortuitum ATCC 110; assay type: cell-based; conditions: Mycolicibacterium fortuitum, ATCC110; Table XIV A. Gram-positive bacteria
[3] = test system: Escherichia coli (ATCC25922); assay: MIC, broth microdilution (CLSI), Escherichia coli; conditions: Escherichia coli
Protocol: Initial minimal inhibitory concentration (MIC) tests were made on two bacterial strains: • Escherichia coli (ATCC25922) • Staphylococcus aureus (ATCC25923).
MIC values were determined using the standard broth microdilution procedure based on the guidelines by the Clinical and Laboratory Standards Institute (CLSI). Briefly, the compounds were dissolved in DMSO to 10 mM. They were diluted in cation-adjusted Mueller-Hinton broth (CAMHB) to four times the highest concentration tested. A serial two-fold dilution in CAMHB was done in microdilution plates. The inoculum of bacterial strain to be tested was prepared by making a suspension of colonies from an 18 to 24 hours old plate in CAMHB. The inoculum was diluted so that, after inoculation, each well contained approximately 5×10^5 CFU/mL. To a volume of 50 μl compound in CA 3 an equal volume of inoculum was added. The tray was sealed in a plastic bag and incubated at 35° C. for 16 to 20 hours. To aid in the detection of growth the dye resazurin was added to a final concentration 0.001% and incubated at room temperature for 1 h. Reduction of resazurin, and therefore bacterial growth, was seen as a change from blue to pink.

[4] = test system: H. pylori ATCC 43504; assay: MIC, H. pylori ATCC 43504; assay type: cell-based; conditions: Helicobacter pylori, ATCC43504; Table XIV B. Gram-negative bacteria
[5] = test system: E. coli RNase P RNA, M1 RNA; assay: Inhibition of bacterial RNase P activity, IC50 determination (cleavage of pATSerUG by M1 RNA); assay type: biochemical; conditions: NI: No inhibition
[6] = test system: K. pneumoniae ATCC 43816; assay: MIC, K. pneumoniae ATCC 43816; assay type: cell-based; conditions: Klebsiella pneumoniae, ATCC43816; Table XIV B. Gram-negative bacteria
[7] = test system: A. baumannii ATCC 17978; assay: MIC, A. baumannii ATCC 17978; assay type: cell-based; conditions: Acinetobacter baumannii, ATCC17978; Table XIV B. Gram-negative bacteria
[8] = test system: S. aureus MRSA ATCC 33591; assay: MIC, S. aureus MRSA ATCC 33591; assay type: cell-based; conditions: Staphylococcus aureus, read-out: S. aureus MRSA ATCC 33591 MIC
[9] = test system: Enterococcus faecalis (ATCC29212); assay: MIC, broth microdilution (CLSI), Enterococcus faecalis; assay type: cell-based
[10] = test system: M. phlei ATCC 11758; assay: MIC, M. phlei ATCC 11758; assay type: cell-based; conditions: Mycolicibacterium phlei, ATCC11758; Table XIV A. Gram-positive bacteria
[11] = test system: Staphylococcus aureus subsp. aureus (ATCC29213); assay: MIC, broth microdilution (CLSI), Staphylococcus aureus ATCC29213; assay type: cell-based; conditions: Staphylococcus aureus
[12] = test system: P. aeruginosa NTUH974 (MDR); assay: MIC, P. aeruginosa NTUH974 (MDR); assay type: cell-based; conditions: Pseudomonas aeruginosa, read-out: P. aeruginosa NTUH974 (MDR) MIC
[13] = test system: H. influenzae ATCC 49247; assay: MIC, H. influenzae ATCC 49247; assay type: cell-based; conditions: Haemophilus influenzae, ATCC49247; Table XIV B. Gram-negative bacteria
[14] = test system: E. coli JW5503 (efflux defective); assay: MIC, E. coli JW5503 (efflux defective); assay type: cell-based; conditions: Escherichia coli, read-out: E. coli JW5503 (efflux defective) MIC
[15] = test system: S. pneumoniae ATCC 49619; assay: MIC, S. pneumoniae ATCC 49619; assay type: cell-based; conditions: Streptococcus pneumoniae, ATCC49619; Table XIV A. Gram-positive bacteria
[16] = test system: N. gonorrhoeae ATCC 700825; assay: MIC, N. gonorrhoeae ATCC 700825; assay type: cell-based; conditions: Neisseria gonorrhoeae, ATCC700825; Table XIV B. Gram-negative bacteria
[17] = test system: S. aureus USA300 MRSA BAA-1717; assay: MIC, S. aureus USA300 MRSA BAA-1717; assay type: cell-based; conditions: Staphylococcus aureus, read-out: S. aureus USA300 MRSA BAA-1717 MIC
[18] = test system: E. faecium ATCC 700221; assay: MIC, E. faecium ATCC 700221; assay type: cell-based; conditions: Enterococcus faecium
[19] = ATCC27853, Table XIV B. Gram-negative bacteria, read-out: P. aeruginosa ATCC 27853 MIC
[20] = ATCC25922, read-out: E. coli ATCC 25922 MIC, Table XIII
[21] = ATCC25922, read-out: E. coli ATCC 25922 MIC, Table XIV B. Gram-negative bacteria
[22] = Table XIV A. Gram-positive bacteria
[23] = ATCC29212, Table XIV A. Gram-positive bacteria, read-out: E. faecalis ATCC 29212 MIC
[24] = ATCC29213, Table XIII, read-out: S. aureus ATCC 29213 MIC
[25] = ATCC29213, Table XIV A. Gram-positive bacteria, read-out: S. aureus ATCC 29213 MIC
[26] = Table XIV B. Gram-negative bacteria
[27] = ATCC700221, Table XIV A. Gram-positive bacteria, read-out: E. faecium ATCC 700221 MIC

Cl.Cl.NCCCNCCC(c1cn(C2CCCCC2)c2ccccc12)C1CCCCC1 (centres unmarked) [Compound 371, N1-(3-cyclohexyl-3-(1-cyclohexyl-1H-indol-3-yl)propyl)propane-1,3-diamine hydrochloride]
MIC [1, 19]: 8 µg/mL
MIC [2]: 4 µg/mL
MIC [3, 20]: 2 µg/mL
MIC [3, 21]: 2 µg/mL
MIC [4]: 16 µg/mL
IC50 ([5]; hydrochloride): 9 µM
MIC [6]: 4 µg/mL
MIC [7]: 4 µg/mL
MIC [8, 22]: 4 µg/mL
MIC [9, 23]: 4 µg/mL
MIC [10]: 4 µg/mL
MIC [11, 24]: 4 µg/mL
MIC [11, 25]: 4 µg/mL
MIC [12, 26]: 8 µg/mL
MIC [13]: 4 µg/mL
MIC [14]: 2 µg/mL
MIC [15]: 8 µg/mL
MIC [16]: 2 µg/mL
MIC [17, 22]: 4 µg/mL
MIC [18, 27]: 2 µg/mL

Cc1cccc(-c2ccc3c(c2)c(C2CCCC(NCCCN)C2)cn3C2CCCCC2)c1 (centres unmarked) [Compound 381, N1-(3-(1-cyclohexyl-5-(m-tolyl)-1H-indol-3-yl)cyclohexyl)propane-1,3-diamine]
MIC [1, 19]: 4 µg/mL (≈ 9.02 µM)
MIC [2]: 4 µg/mL (≈ 9.02 µM)
MIC [3, 20]: 4 µg/mL (≈ 9.02 µM)
MIC [3, 21]: 2 µg/mL (≈ 4.51 µM)
MIC [4]: 8 µg/mL (≈ 18 µM)
IC50 [5]: 11 µM
MIC [6]: 4 µg/mL (≈ 9.02 µM)
MIC [7]: 4 µg/mL (≈ 9.02 µM)
MIC [8, 22]: 2 µg/mL (≈ 4.51 µM)
MIC [9, 23]: 2 µg/mL (≈ 4.51 µM)
MIC [10]: 4 µg/mL (≈ 9.02 µM)
MIC [11, 24]: 2 µg/mL (≈ 4.51 µM)
MIC [11, 25]: 2 µg/mL (≈ 4.51 µM)
MIC [12, 26]: 8 µg/mL (≈ 18 µM)
MIC [13]: 2 µg/mL (≈ 4.51 µM)
MIC [14]: 2 µg/mL (≈ 4.51 µM)
MIC [15]: 8 µg/mL (≈ 18 µM)
MIC [16]: 2 µg/mL (≈ 4.51 µM)
MIC [17, 22]: 2 µg/mL (≈ 4.51 µM)
MIC [18, 27]: 1 µg/mL (≈ 2.25 µM)

Cc1cccc(-c2ccc3c(c2)c(CCCNCCCN)cn3C2CCCCC2)c1.Cl.Cl [Compound 360, N1-(3-(1-cyclohexyl-5-(m-tolyl)-1H-indol-3-yl)propyl)propane-1,3-diamine hydrochloride salt]
MIC [1, 19]: 8 µg/mL
MIC [2]: 4 µg/mL
MIC [3, 20]: 4 µg/mL
MIC [3, 21]: 2 µg/mL
MIC [4]: 8 µg/mL
IC50 [5]: 7.8 µM
MIC [6]: 4 µg/mL
MIC [7]: 4 µg/mL
MIC [8, 22]: 2 µg/mL
MIC [9, 23]: 2 µg/mL
MIC [10]: 4 µg/mL
MIC [11, 24]: 4 µg/mL
MIC [11, 25]: 4 µg/mL
MIC [12, 26]: 8 µg/mL
MIC [13]: 2 µg/mL
MIC [14]: 2 µg/mL
MIC [15]: 8 µg/mL
MIC [16]: 2 µg/mL
MIC [17, 22]: 2 µg/mL
MIC [18, 27]: 2 µg/mL

N#Cc1ccc2c(c1)c(C(CCNCCCN)c1cccc(OC(F)(F)F)c1)cn2C1CCCCC1 (centres unmarked) [Compound 372, 3-(3-((3-aminopropyl)amino)-1-(3-(trifluoromethoxy)phenyl)propyl)-1-cyclohexyl-1H-indole-5-carbonitrile, dihydrochloride salt]
MIC ([1]; ATCC27853, read-out: P. aeruginosa ATCC 27853 MIC): 8 µg/mL
MIC [2]: 4 µg/mL
MIC [3, 20]: 4 µg/mL
MIC [3, 21]: 2 µg/mL
MIC [4]: 16 µg/mL
IC50 [5]: 9.1 µM
MIC [6]: 2 µg/mL
MIC [7]: 4 µg/mL
MIC [8]: 4 µg/mL
MIC ([9]; ATCC29212, read-out: E. faecalis ATCC 29212 MIC): 2 µg/mL
MIC [10]: 4 µg/mL
MIC ([11]; ATCC29213, read-out: S. aureus ATCC 29213 MIC, Table XIII): 4 µg/mL
MIC ([11]; ATCC29213, read-out: S. aureus ATCC 29213 MIC, Table XIV A. Gram-positive bacteria): 2 µg/mL
MIC [12]: 8 µg/mL
MIC [13]: 4 µg/mL
MIC [14]: 2 µg/mL
MIC [15]: 8 µg/mL
MIC [16]: 4 µg/mL
MIC [17]: 2 µg/mL
MIC ([18]; ATCC700221, read-out: E. faecium ATCC 700221 MIC): 2 µg/mL

Cc1cccc(C(CCNCCCN)c2cn(C3CCCCC3)c3cc(Br)ccc23)c1.Cl.Cl (centres unmarked) [Compound 357, N1-(3-(6-bromo-1-cyclohexyl-1H-indol-3-yl)-3-(m-tolyl)propyl)propane-1,3-diamine hydrochloride salt]
MIC [1, 19]: 4 µg/mL
MIC [2]: 4 µg/mL
MIC [3, 20]: 4 µg/mL
MIC [3, 21]: 2 µg/mL
MIC [4]: 16 µg/mL
IC50 [5]: 10 µM
MIC [6]: 2 µg/mL
MIC [7]: 4 µg/mL
MIC [8, 22]: 2 µg/mL
MIC [9, 23]: 2 µg/mL
MIC [10]: 4 µg/mL
MIC [11, 24]: 4 µg/mL
MIC [11, 25]: 2 µg/mL
MIC [12, 26]: 4 µg/mL
MIC [13]: 2 µg/mL
MIC [14]: 4 µg/mL
MIC [15]: 8 µg/mL
MIC [16]: 2 µg/mL
MIC [17, 22]: 2 µg/mL
MIC [18, 27]: 1 µg/mL

NCCCNCCC(c1cccc(OC(F)(F)F)c1)c1cn(C2CCCCC2)c2ccccc12 (centres unmarked) [Compound 348, N1-(3-(1-cyclohexyl-1H-indol-3-yl)-3-(3-(trifluoromethoxy)phenyl)propyl)propane-1,3-diaminesalt]
MIC [1, 19]: 8 µg/mL
MIC [2]: 4 µg/mL
MIC [3, 20]: 4 µg/mL
MIC [3, 21]: 2 µg/mL
MIC [4]: 16 µg/mL
IC50 [5]: 4.5 µM
MIC [6]: 2 µg/mL
MIC [7]: 4 µg/mL
MIC [8, 22]: 4 µg/mL
MIC [9, 23]: 2 µg/mL
MIC [10]: 4 µg/mL
MIC [11, 24]: 4 µg/mL
MIC [11, 25]: 4 µg/mL
MIC [12, 26]: 8 µg/mL
MIC [13]: 4 µg/mL
MIC [14]: 2 µg/mL
MIC [15]: 8 µg/mL
MIC [16]: 2 µg/mL
MIC [17, 22]: 4 µg/mL
MIC [18, 27]: 2 µg/mL

Cc1cccc(-c2ccc3c(c2)c(CCCNCC(O)CN)cn3C2CCCCC2)c1 (centres unmarked) [Compound 385, 1-amino-3-((3-(1-cyclohexyl-5-(m-tolyl)-1H-indol-3-yl)propyl)amino) propan-2-ol]
MIC [1, 19]: 4 µg/mL (≈ 9.53 µM)
MIC [2]: 2 µg/mL (≈ 4.77 µM)
MIC [3, 20]: 4 µg/mL (≈ 9.53 µM)
MIC [3, 21]: 4 µg/mL (≈ 9.53 µM)
MIC [4]: 8 µg/mL (≈ 19.1 µM)
IC50 [5]: 13 µM
MIC [6]: 4 µg/mL (≈ 9.53 µM)
MIC [7]: 4 µg/mL (≈ 9.53 µM)
MIC [8, 22]: 2 µg/mL (≈ 4.77 µM)
MIC [9, 23]: 2 µg/mL (≈ 4.77 µM)
MIC [10]: 4 µg/mL (≈ 9.53 µM)
MIC [11, 24]: 4 µg/mL (≈ 9.53 µM)
MIC [11, 25]: 2 µg/mL (≈ 4.77 µM)
MIC [12, 26]: 4 µg/mL (≈ 9.53 µM)
MIC [13]: 2 µg/mL (≈ 4.77 µM)
MIC [14]: 2 µg/mL (≈ 4.77 µM)
MIC [15]: 8 µg/mL (≈ 19.1 µM)
MIC [16]: 2 µg/mL (≈ 4.77 µM)
MIC [17, 22]: 2 µg/mL (≈ 4.77 µM)
MIC [18, 27]: 2 µg/mL (≈ 4.77 µM)
